The text below walks through data of patent US20200179392A1, “Idelalisib for Treating Proliferative Vitreoretinopathy and Abnormal Intraocular Neovascularization” (priority 2016, published 2020).

Experiment [1] relates to angiogenesis (neovascularization) in retina. The experiment is described as follows: Mouse model of oxygen-induced retinopathy (OIR). Format: in vivo. Conditions: P12 mice, intravitreal 1 μl of 50 μM, retinas IB4 stained on P17. The procedure:
FIGS. 11A-B. Idelalisib inhibits angiogenesis in a mouse model of oxygen-induced retinopathy (OIR). Litters of P12 mice that had been exposed to 75% oxygen for five days were injected intravitreally with 1 μl ilidelalisib (50 μM) or its vehicle (DMSO). A, On P17, whole-mount-retinas were stained with IB4. B, Analysis of neovascularization (NV) areas from the IB4 stained retinas (n=6). The bar graph data are mean±SD of three retinas. “*” indicates significant difference using an unpaired t test. p<0.05.
C57BL/6J litters on postnatal day (P) 7 were exposed to 75% oxygen until P12 in the oxygen chamber (Biospherix). Oxygen concentration was monitored daily using an oxygen sensor (Advanced Instruments, GPR-20F)^58, 59. On P12, the pups were anesthetized by intraperitoneal injection of 50 mg/kg ketamine hydrochloride and 10 mg/kg xylazine. During intravitreal injections, eyelids of P12 pups were separated by incision. Pupils were dilated using a drop of 1% tropicamide and the eyes were treated with topical proparacaine anesthesia. Intravitreous injections were performed under a microsurgical microscope using glass pipettes with a diameter of approximately 150 μm at the tip after the eye were punctured at the upper nasal limbus using a BD insulin syringe with the BD ultra-fine needle. One μl of idelalisib or DMSO was injected. […]

Experiment [2] relates to phosphorylation of Akt at serine 473. The experiment is described as follows: Western blot of Akt phosphorylation (S473) in RPEM cells stimulated with vitreous or PDGF. Format: cell-based, human. On the procedure:
(§1) 1B. After growth factor-deprivation, the RPEM cells were pretreated with idelalisib at indicated concentrations, or its vehicle for 30 minutes, and then treated with normal rabbit vitreous diluted (1:2) in DMEM (RV), V: vehicle (0.1% dimethyl sulfoxide) or PDGF-B (10 ng/ml). After the treatment for 30 minutes at 37° C., their lysates were subjected to a western blot analysis using the indicated antibodies. This is representative of three independent experiments. Cells grown to 90% confluence in wells of 24-well plates were serum starved for 24 hours, and then treated with appropriated agents. After two washes with ice-cold phosphate buffered saline (PBS), the cells were lysed in 1× sample buffer diluted with protein extraction buffer (10 mM Tris-HCl, pH 7.4; 5 mM […] (EDTA), 50 mM NaCl, 50 mM NaF, 1% Triton X-100, 20 μg/ml aprotinin, 2 mM Na3VO4, 1 mM phenylmethylsulfonyl fluoride] from 5× sample buffer [25 mM EDTA, 10% sodium dodecyl sulfate (SDS), 500 mM dithiothreitol (DTT), 50% sucrose, 500 mM Tris.HCl (pH=6.8), 0.5% bromophenol blue). The samples were boiled for 5 minutes and then centrifuged for 5 minutes at 13,000×g, 4° C. […] Signal intensity was determined by densitometry using NIH imageJ software^24, 44, 50.
On the technique in general: Immunoblotting shows a protein as a band on a membrane.

Experiment [3] deals with HRECs. Put plainly: VEGF-induced wound healing (migration) assay in HRECs. Format: cell-based, human. Conditions: VEGF 20 ng/ml, idelalisib 5 μM, 18 hours. On the procedure:
A wound healing assay was performed as previously described^62 with minor modifications. Once cells reached 90% confluence in 48-well plates, they were starved for growth factors for 7 hours. A wound was created by scraping the cell monolayer with a sterile pipette tip (200 μl). The cells were washed twice to remove detached cells and then treated with VEGF (20 ng/ml) or VEGF plus idelalisib (5 μM). The wound was photographed at 18 hours post wounding with an EVOS FL Auto microscope (Thermo Scientific) as shown in 8B from three independent experiments^61.

Experiment [4] concerns activation of Erk. Put plainly: Western blot of vitreous-induced Erk activation in RPEM cells. The format is cell-based, human. Conditions: idelalisib 10.0 μM (selective dose for PI3Kδ). The procedure:
as §1

For experiment [5], the system named is activation of Akt. Put plainly: VEGF-induced activation of Akt. Format: cell-based.
Experiment [6] deals with RPEM cells. Put plainly: Cell apoptosis (survival) assay, RPEM cells with vitreous. Format: cell-based, human. The following applies: idelalisib 5 μM, 48 hours, Annexin V/PI FACS. On the procedure:
3B. After RPEM cells reached 80% confluence in 60-mm dishes, the cultured medium was changed to either 3 ml DMEM/F12 or RV supplemented with idelalisib (5 μM) or its vehicle (0.1% dimethyl sulfoxide: DMSO). 48 hours later, the detached cells were washed with phosphate-buffer saline (PBS) and stained with fluorescein isothiocyanate (FITC)-conjugated Annexin V and propidium iodide (PI) and then analyzed by fluorescence-activated cell sorting (FACS). A representative raw data of three experiments below the bar graphs is shown. RPEM cells were seeded into 6 cm-dishes at a density of 2×10^5 cells per dish in DMEM/F12+10% FBS. Following attachment, the cells were treated with DMEM/F12 or RV (1:2 dilution in DMEM/F12) with or without idelalisib ([…]). On day 3, the cells were stained with fluorescein isothiocyanate (FITC)-conjugated annexin V and propidium iodide (PI) following the manufacturer's instructions (BD Biosciences, Palo Alto, Calif.). The cells were analyzed by flow cytometry in a Coulter Beckman XL instrument. At least three independent experiments were performed^24, 44.

As to `CC[C@H](Nc1ncnc2[nH]cnc12)c1nc2cccc(F)c2c(=O)n1-c1ccccc1` [idelalisib], the “effect on angiogenesis in oxygen-induced retinopathy” value in experiment [1] was “abrogated”. In addition, in experiment [2] (idelalisib 1.0 μM, 30 min pretreatment, rabbit vitreous 1:2 for 30 min), the “inhibition of vitreous-stimulated phosphorylation of Akt at serine 473” value is recorded as “completely inhibited”. The “inhibition of PDGF-stimulated activation of Akt” value in experiment [2] (idelalisib 10.0 μM (selective dose for PI3Kδ), PDGF-B 10 ng/ml) is on record as “neither inhibited”. Moreover, in experiment [3], the “effect on VEGF-stimulated migration of HRECs” value is recorded as “completely blocked”. In experiment [4], the “inhibition of vitreous-induced activation of Erk” value was “neither inhibited”. In experiment [5], the “effect on VEGF-induced activation of Akt” value is “able to block”. The “effect on vitreous-induced survival of RPEM cells” value in experiment [6] is on record as “prevented”.
